The supplement of paper PMC11061612

What was measured:
Test in all cases: Bliss excess, mean over the matrix (fraction); higher = more synergy
5637 (Bladder Carcinoma) = tested on: 5637 (Bladder Carcinoma)
Procedure, shortened: (§1)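 Bliss excess equals the observed combination effect minus the expected value EA + EB − EA·EB, where EA and EB are the effects of each agent alone. Combination Emax is the second-highest inhibition within the matrix. Inhibition was scaled from CellTiter-Glo 2.0 luminescence, with 0 set by vehicle wells and 1 by blank wells, after 72 hours of two-drug dosing of cells plated in 1536-well plates.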

A101D (Melanoma) = tested on: A101D (Melanoma)
Procedure, shortened: as §1

[1] = tested on: A253 (Head and Neck Carcinoma)
Procedure, shortened: as §1

[2] = tested on: CA46 (Burkitt's Lymphoma)
Procedure, shortened: as §1

[3] = tested on: CAL-27 (Oral Cavity Carcinoma)
Procedure, shortened: as §1

[4] = tested on: CGTH-W-1 (Thyroid Gland Carcinoma)
Procedure, shortened: as §1

COLO-792 (Melanoma) = tested on: COLO-792 (Melanoma)
Procedure, shortened: as §1

[5] = tested on: ESO26 (Esophageal Adenocarcinoma)
Procedure, shortened: as §1

EW-7 (Ewing's Sarcoma) = tested on: EW-7 (Ewing's Sarcoma)
Procedure, shortened: as §1

[6] = tested on: G-402 (Other Solid Carcinomas)
Procedure, shortened: as §1

[7] = tested on: HCC1428 (Breast Carcinoma)
Procedure, shortened: as §1

HCC70 (Breast Carcinoma) = tested on: HCC70 (Breast Carcinoma)
Procedure, shortened: as §1

IM-9 (Non-Cancerous) = tested on: IM-9 (Non-Cancerous)
Procedure, shortened: as §1

[8] = tested on: JHU-022 (Oral Cavity Carcinoma)
Procedure, shortened: as §1

KP-N-YN (Neuroblastoma) = tested on: KP-N-YN (Neuroblastoma)
Procedure, shortened: as §1

[9] = tested on: LU-165 (Small Cell Lung Carcinoma)
Procedure, shortened: as §1

[10] = tested on: NCI-H1651 (Lung Adenocarcinoma)
Procedure, shortened: as §1

[11] = tested on: NCI-H2087 (Lung Adenocarcinoma)
Procedure, shortened: as §1

RH-41 (Rhabdomyosarcoma) = tested on: RH-41 (Rhabdomyosarcoma)
Procedure, shortened: as §1

[12] = tested on: SK-HEP-1 (Hepatocellular Carcinoma)
Procedure, shortened: as §1

Compound: NC1(C(=O)N[C@@H](CCO)c2ccc(Cl)cc2)CCN(c2ncnc3[nH]ccc23)CC1 [Capivasertib] + CC(=O)c1c(C)c2cnc(Nc3ccc(N4CCNCC4)cn3)nc2n(C2CCCC2)c1=O [Palbociclib] (first compound max 10 µM, 7x7, partner max 10 µM)
- Bliss excess (5637 (Bladder Carcinoma)): -0.0521
- Bliss excess (A101D (Melanoma)): 0.0157
- Bliss excess [1]: -0.0709
- Bliss excess [2]: 0.0033
- Bliss excess [3]: -0.0242
- Bliss excess [4]: 0.0111
- Bliss excess (COLO-792 (Melanoma)): -0.0643
- Bliss excess [5]: -0.0512
- Bliss excess (EW-7 (Ewing's Sarcoma)): 0.01
- Bliss excess [6]: -0.0357
- Bliss excess [7]: -0.0201
- Bliss excess (HCC70 (Breast Carcinoma)): 0.0198
- Bliss excess (IM-9 (Non-Cancerous)): 0.0229
- Bliss excess [8]: -0.0186
- Bliss excess (KP-N-YN (Neuroblastoma)): -0.043
- Bliss excess [9]: -0.0886
- Bliss excess [10]: -0.0393
- Bliss excess [11]: -0.03
- Bliss excess (RH-41 (Rhabdomyosarcoma)): -0.047
- Bliss excess [12]: -0.109

Compound: CC(=O)Nc1cccc(-n2c(=O)n(C3CC3)c(=O)c3c(Nc4ccc(I)cc4F)n(C)c(=O)c(C)c32)c1 [Trametinib] + Cc1nc(-c2cn3c(n2)-c2ccc(-c4cnn(C(C)(C)C(N)=O)c4)cc2OCC3)n(C(C)C)n1 [Taselisib] (first compound max 1 µM, 7x7, partner max 10 µM)
- Bliss excess (5637 (Bladder Carcinoma)): 0.292
- Bliss excess (A101D (Melanoma)): 0.0168
- Bliss excess [1]: 0.145
- Bliss excess [2]: 0.0404
- Bliss excess [3]: 0.128
- Bliss excess [4]: 0.174
- Bliss excess (COLO-792 (Melanoma)): 0.113
- Bliss excess [5]: 0.147
- Bliss excess (EW-7 (Ewing's Sarcoma)): 0.0479
- Bliss excess [6]: 0.0104
- Bliss excess [7]: 0.0116
- Bliss excess (HCC70 (Breast Carcinoma)): 0.149
- Bliss excess (IM-9 (Non-Cancerous)): 0.0008
- Bliss excess [8]: 0.0194
- Bliss excess (KP-N-YN (Neuroblastoma)): 0.0046
- Bliss excess [9]: 0.0388
- Bliss excess [10]: 0.0354
- Bliss excess [11]: 0.163
- Bliss excess (RH-41 (Rhabdomyosarcoma)): 0.0419
- Bliss excess [12]: 0.0781

Compound: CC(=O)c1c(C)c2cnc(Nc3ccc(N4CCNCC4)cn3)nc2n(C2CCCC2)c1=O [Palbociclib] + Cn1cnc2c(F)c(Nc3ccc(Br)cc3Cl)c(C(=O)NOCCO)cc21 [Selumetinib] (first compound max 10 µM, 7x7, partner max 10 µM)
- Bliss excess (5637 (Bladder Carcinoma)): -0.0288
- Bliss excess (A101D (Melanoma)): -0.0907
- Bliss excess [1]: -0.0864
- Bliss excess [2]: -0.0504
- Bliss excess [3]: -0.0132
- Bliss excess [4]: -0.036
- Bliss excess (COLO-792 (Melanoma)): -0.0127
- Bliss excess [5]: 0.0104
- Bliss excess (EW-7 (Ewing's Sarcoma)): 0.0709
- Bliss excess [6]: 0.0399
- Bliss excess [7]: -0.0235
- Bliss excess (HCC70 (Breast Carcinoma)): 0.055
- Bliss excess (IM-9 (Non-Cancerous)): 0.0248
- Bliss excess [8]: 0.0858
- Bliss excess (KP-N-YN (Neuroblastoma)): -0.0253
- Bliss excess [9]: -0.0518
- Bliss excess [10]: -0.0391
- Bliss excess [11]: -0.0101
- Bliss excess (RH-41 (Rhabdomyosarcoma)): -0.0076
- Bliss excess [12]: -0.114

Compound: Cc1c2c(nn1C)CSCc1cc(n(C)n1)CSc1cc(c3ccccc3c1)OCCCc1c(C(=O)O)n(C)c3c-2c(Cl)ccc13 [AZD5991] + Cn1cnc2c(F)c(Nc3ccc(Br)cc3Cl)c(C(=O)NOCCO)cc21 [Selumetinib] (first compound max 1 µM, 7x7, partner max 3 µM)
- Bliss excess (5637 (Bladder Carcinoma)): 0.0174
- Bliss excess (A101D (Melanoma)): 0.0482
- Bliss excess [1]: 0.0716
- Bliss excess [2]: -0.0195
- Bliss excess [3]: 0.0086
- Bliss excess [4]: -0.0152
- Bliss excess (COLO-792 (Melanoma)): 0.0234
- Bliss excess [5]: 0.0199
- Bliss excess (EW-7 (Ewing's Sarcoma)): 0.0096
- Bliss excess [6]: -0.0416
- Bliss excess [7]: -0.0185
- Bliss excess (HCC70 (Breast Carcinoma)): 0.099
- Bliss excess (IM-9 (Non-Cancerous)): 0.0092
- Bliss excess [8]: 0.0466
- Bliss excess (KP-N-YN (Neuroblastoma)): -0.0059
- Bliss excess [9]: -0.0335
- Bliss excess [10]: -0.0165
- Bliss excess [11]: 0.0282
- Bliss excess (RH-41 (Rhabdomyosarcoma)): -0.0293
- Bliss excess [12]: -0.0484

Compound: NC1(C(=O)N[C@@H](CCO)c2ccc(Cl)cc2)CCN(c2ncnc3[nH]ccc23)CC1 [Capivasertib] + COc1nnc2ccc(N3CCC(c4ccc(OCCN5CCN(C)C(=O)[C@H]5C)cc4)CC3)nn12 [AZD5153] (first compound max 10 µM, 7x7, partner max 1 µM)
- Bliss excess (5637 (Bladder Carcinoma)): 0.0035
- Bliss excess (A101D (Melanoma)): 0.0062
- Bliss excess [1]: 0.125
- Bliss excess [2]: -0.0183
- Bliss excess [3]: -0.0366
- Bliss excess [4]: 0.0068
- Bliss excess (COLO-792 (Melanoma)): 0.133
- Bliss excess [5]: 0.0358
- Bliss excess (EW-7 (Ewing's Sarcoma)): -0.0004
- Bliss excess [6]: -0.02
- Bliss excess [7]: -0.0596
- Bliss excess (HCC70 (Breast Carcinoma)): 0.0422
- Bliss excess (IM-9 (Non-Cancerous)): -0.0708
- Bliss excess [8]: 0.0019
- Bliss excess (KP-N-YN (Neuroblastoma)): -0.0718
- Bliss excess [9]: -0.0351
- Bliss excess [10]: -0.0361
- Bliss excess [11]: 0.0179
- Bliss excess (RH-41 (Rhabdomyosarcoma)): 0.0198
- Bliss excess [12]: -0.0784

Compound: CC1(C)CCC(CN2CCN(c3ccc(C(=O)NS(=O)(=O)c4ccc(NCC5CCOCC5)c([N+](=O)[O-])c4)c(Oc4cnc5[nH]ccc5c4)c3)CC2)=C(c2ccc(Cl)cc2)C1 [Venetoclax] + C[C@@H](Nc1cc(F)cc(F)c1)c1cc(C(=O)N(C)C)cc2c(=O)cc(N3CCOCC3)oc12 [AZD8186] (first compound max 1 µM, 7x7, partner max 3 µM)
- Bliss excess (5637 (Bladder Carcinoma)): -0.0273
- Bliss excess (A101D (Melanoma)): 0.0305
- Bliss excess [1]: -0.0364
- Bliss excess [2]: 0.0323
- Bliss excess [3]: -0.0361
- Bliss excess [4]: -0.0244
- Bliss excess (COLO-792 (Melanoma)): 0.0036
- Bliss excess [5]: -0.0277
- Bliss excess (EW-7 (Ewing's Sarcoma)): 0.0048
- Bliss excess [6]: -0.0612
- Bliss excess [7]: -0.0147
- Bliss excess (HCC70 (Breast Carcinoma)): 0.0376
- Bliss excess (IM-9 (Non-Cancerous)): -0.0608
- Bliss excess [8]: -0.0563
- Bliss excess (KP-N-YN (Neuroblastoma)): 0.104
- Bliss excess [9]: -0.0042
- Bliss excess [10]: -0.0212
- Bliss excess [11]: -0.0442
- Bliss excess (RH-41 (Rhabdomyosarcoma)): 0.0587
- Bliss excess [12]: -0.0299

Compound: CC1(C)CCC(CN2CCN(c3ccc(C(=O)NS(=O)(=O)c4ccc(NCC5CCOCC5)c([N+](=O)[O-])c4)c(Oc4cnc5[nH]ccc5c4)c3)CC2)=C(c2ccc(Cl)cc2)C1 [Venetoclax] + C[C@@H]1COCCN1C2=NC(=NC(=C2)C3(CC3)[S@](=N)(=O)C)C4=C5C=CNC5=NC=C4 [AZD6738] (first compound max 1 µM, 7x7, partner max 10 µM)
- Bliss excess (5637 (Bladder Carcinoma)): -0.048
- Bliss excess (A101D (Melanoma)): -0.0313
- Bliss excess [1]: -0.0372
- Bliss excess [2]: 0.0093
- Bliss excess [3]: -0.0559
- Bliss excess [4]: -0.0224
- Bliss excess (COLO-792 (Melanoma)): 0.03
- Bliss excess [5]: -0.0101
- Bliss excess (EW-7 (Ewing's Sarcoma)): -0.037
- Bliss excess [6]: -0.0004
- Bliss excess [7]: -0.0137
- Bliss excess (HCC70 (Breast Carcinoma)): -0.0528
- Bliss excess (IM-9 (Non-Cancerous)): 0.0201
- Bliss excess [8]: -0.007
- Bliss excess (KP-N-YN (Neuroblastoma)): -0.0619
- Bliss excess [9]: -0.117
- Bliss excess [10]: -0.0123
- Bliss excess [11]: -0.0511
- Bliss excess (RH-41 (Rhabdomyosarcoma)): 0.0355
- Bliss excess [12]: -0.0342
